Data from ChEMBL document CHEMBL4000241, “Investigation of the anti-angiogenesis effects induced by deoxypodophyllotoxin-5-FU conjugate C069 against HUVE cells” (Bioorg Med Chem Lett, 2017).
The source made the active and inactive calls. The calls are words filed in the database; no cut-off is given here.

Columns and labels:
[1] = system: HUVEC; test: Antimigratory activity in HUVEC assessed as reduction in wound-healing at 0.1 to 0.3 uM after 12 hrs by inverted phase contrast microscopy; format: functional, cell-based; conditions: Homo sapiens
[2] = system: HUVEC; test: Downregulation of MMP-2 expression in HUVEC at 0.2 to 0.5 uM after 24 hrs by Western blot analysis; format: functional, cell-based; conditions: Homo sapiens
[3] = system: HUVEC; test: Downregulation of MMP-9 expression in HUVEC at 0.2 to 0.5 uM after 24 hrs by Western blot analysis; format: functional, cell-based; conditions: Homo sapiens
[4] = system: HUVEC; test: Antiangiogenic activity in HUVEC assessed as inhibition of formation of tubular structures after 6 hrs by inverted phase contrast microscopy based matrigel assay; format: functional, cell-based; conditions: Homo sapiens
[5] = system: HUVEC; test: Antiproliferative activity against HUVEC at 0.1 to 0.3 uM after 6 hrs by MTT assay; format: functional, cell-based; conditions: Homo sapiens
[6] = system: HUVEC; test: Vascular disrupting activity in HUVEC assessed as disruption of preformed tube like structure after 6 hrs by inverted phase contrast microscopy based matrigel assay; format: functional, cell-based; conditions: Homo sapiens
[7] = target: T1, Catenin beta-1 (Homo sapiens) (UniProt P35222); test: Inhibition of beta-catenin phosphorylation in HUVEC after 24 hrs by Western blot analysis
T1 sequence (whole entry): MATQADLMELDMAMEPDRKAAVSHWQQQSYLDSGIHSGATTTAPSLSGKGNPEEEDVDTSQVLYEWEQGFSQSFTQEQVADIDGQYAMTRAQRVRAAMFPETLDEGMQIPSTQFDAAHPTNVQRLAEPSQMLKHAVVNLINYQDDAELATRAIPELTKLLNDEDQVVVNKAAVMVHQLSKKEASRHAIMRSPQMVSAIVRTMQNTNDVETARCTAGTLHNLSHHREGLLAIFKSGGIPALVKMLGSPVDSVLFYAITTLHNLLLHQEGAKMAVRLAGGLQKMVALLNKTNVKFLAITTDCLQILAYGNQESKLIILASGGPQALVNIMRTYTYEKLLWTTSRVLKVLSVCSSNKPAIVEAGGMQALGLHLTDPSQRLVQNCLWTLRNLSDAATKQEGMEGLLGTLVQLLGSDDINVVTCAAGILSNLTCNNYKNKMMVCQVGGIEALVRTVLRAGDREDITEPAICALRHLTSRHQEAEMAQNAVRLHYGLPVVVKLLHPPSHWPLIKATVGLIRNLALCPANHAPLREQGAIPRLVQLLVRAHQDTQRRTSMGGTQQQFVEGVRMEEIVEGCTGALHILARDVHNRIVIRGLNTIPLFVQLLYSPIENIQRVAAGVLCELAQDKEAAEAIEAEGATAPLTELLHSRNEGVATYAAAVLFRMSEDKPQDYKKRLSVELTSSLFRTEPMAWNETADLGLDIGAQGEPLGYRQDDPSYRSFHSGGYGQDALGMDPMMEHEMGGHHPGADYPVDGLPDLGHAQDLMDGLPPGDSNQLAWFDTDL

[8] = system: Chorioallantoic membrane; test: Antiangiogenic activity in chicken fertilized egg chorioallantoic membrane assessed as reduction in branching of blood vessels after 48 hrs; format: functional, tissue-based; conditions: Gallus gallus
[9] = organism: Homo sapiens; test: Inhibition of Akt phosphorylation in HUVEC after 24 hrs by Western blot analysis
[10] = system: WI-38; test: Antiproliferative activity against human WI38 cells at 20 to 100 uM after 12 to 48 hrs by MTT assay; format: cell-based; conditions: wi-38, 100 µM
[11] = system: WI-38; test: Antiproliferative activity against human WI38 cells at 30 uM after 12 to 48 hrs by MTT assay; format: cell-based; conditions: wi-38, 30 µM

Row | Compound | Activity [1] | Activity [2] | Activity [3] | Activity [4] | Activity [5] | Activity [6] | inhibition [7] | Activity [8] | inhibition [9] | Activity [10] | Activity [11]
1 | COc1cc([C@@H]2c3cc4c(cc3C[C@H]3COC(=O)[C@@H]32)OCO4)cc(OC)c1OC(=O)CCC(=O)NCCCCCCNC(=O)Cn1cc(F)c(=O)[nH]c1=O | Active | Active | Active | Dose-dependent effect | Active | Dose-dependent effect | Dose-dependent effect | Dose-dependent effect | Dose-dependent effect | Non-Toxic | –
2 | COc1cc([C@@H]2c3cc4c(cc3[C@@H](O[C@@H]3O[C@@H]5CO[C@@H](C)O[C@H]5[C@H](O)[C@H]3O)[C@H]3COC(=O)[C@H]23)OCO4)cc(OC)c1O [ETOPOSIDE] | – | – | – | – | – | – | – | – | – | – | Non-Toxic
